Experimental data published in PMC9894685, “Abscisic acid agonists suitable for optimizing plant water use” (Frontiers in Plant Science, 2023).

What was measured:
RCAR8-ABI2 = test: In vitro phosphatase assay, ABI2 with RCAR8; format: biochemical, Arabidopsis thaliana; details: 100 nM ABI2, 200 nM RCAR8
Description: Expression, purification, and analysis of RCAR and PP2C proteins were performed essentially as described ([Ruschhaupt et al., 2019]). Briefly, the ABA receptors RCAR1, RACR8, and RCAR11 were expressed with an aminoterminal histidine tag using the pSEVA431_LII_6xHIS::RCAR1/RCAR8/RCAR11. ABA coreceptors were expressed as histidine-tagged fusions with the maltose-binding protein using the pSEVA431_LII_6xHIS::MBP::ABI2/HAB1. All constructs were transformed and expressed in Escherichia coli strain BL21 and purified to homogeneity according to supplier’s instruction (GE Healthcare, Chicago, USA). The receptor assay was performed with 100 nM PP2C and a two-fold molar excess of RCAR. Values are means ± SD of three replicates. […] The maximum inhibition was set to 100% in the figures. The phosphatase activity was measured using 4-methylumbelliferyl-phosphate as a substrate ([Meinhard and Grill, 2001]). The increase in fluorescence was recorded over 25 min with excitation and emission wavelengths at 360 and 460 nm, respectively, using a Synergy 2 plate reader (Bio-Tec, Winooski, USA).

Arabidopsis plants = test: Foliar administration and thermal imaging of leaf temperature (transpiration), Arabidopsis; format: in vivo, Arabidopsis thaliana

- IC50 relative to ABA (fold higher) (RCAR8-ABI2): ~30 fold
SMILES: CCC(=C/C(=O)O)/C=C/C(O)(C(C)C)C1(C#N)CC1 (stereo not shown) [CCP2]
- Efficiency in minimizing transpiration compared to ABA (Arabidopsis plants; foliar application): by an order of magnitude more efficient than ABA
- ABA concentration achieving a temperature increase similar to 10 µM of the CCP (Arabidopsis plants; one day after application): about 100 µM
- Activity and persistence of minimized transpiration compared to ABA (Arabidopsis plants; single application 100 µM, recorded for 19 days): more active and persistent than ABA
